Experimental data published in patent US20260053834A1, “COVALENT MODIFIERS OF AKT1 AND USES THEREOF” (Terremoto Biosciences, Inc., priority 2023, published 2026).

Key:
[1] = target: T1, AKT1 WT (Homo sapiens, UniProt P31749); assay: Live cell target engagement by NanoBRET competitive probe displacement, AKT1 WT; type: binding; settings: transfected HEK293 cells, 2 h at 37° C., read-out: AKT1 WT IC50: GeoMean IC50
T1 construct: expressed in transfected cells; host or cells: HEK293

[2] = target: T2, AKT2 (Homo sapiens, UniProt P31751); assay: Live cell target engagement by NanoBRET competitive probe displacement, AKT2; type: binding; settings: transfected HEK293 cells, 2 h at 37° C., read-out: AKT2 IC50: GeoMean IC50
T2 construct: expressed in transfected cells; host or cells: HEK293
T2 sequence (P31751 whole entry): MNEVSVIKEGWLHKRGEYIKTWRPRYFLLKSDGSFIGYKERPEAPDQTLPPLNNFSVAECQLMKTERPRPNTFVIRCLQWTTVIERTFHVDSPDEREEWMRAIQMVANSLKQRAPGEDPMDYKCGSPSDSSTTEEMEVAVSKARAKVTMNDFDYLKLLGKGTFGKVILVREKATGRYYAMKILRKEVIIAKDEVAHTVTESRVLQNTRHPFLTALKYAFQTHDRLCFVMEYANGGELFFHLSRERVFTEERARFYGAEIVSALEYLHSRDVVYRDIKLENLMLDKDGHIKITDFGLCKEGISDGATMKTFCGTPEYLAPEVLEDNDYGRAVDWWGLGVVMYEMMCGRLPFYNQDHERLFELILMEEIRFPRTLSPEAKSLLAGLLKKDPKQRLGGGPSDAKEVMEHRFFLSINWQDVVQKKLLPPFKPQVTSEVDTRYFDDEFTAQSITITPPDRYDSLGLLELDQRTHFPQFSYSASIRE

[3] = system: LAPC4 prostate cancer cells, which express the AKT1 E17K allele; assay: Antiproliferative effects in LAPC4 cells (CellTiter Glo, 72 h); type: cell-based; settings: Homo sapiens, LAPC4, 72 h, read-out: LAPC4 proliferation IC50: GeoMean IC50
Summary of the method: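 Cells grown in IMDM with 12% FBS, seeded at 1,000 cells/well and treated with compound dilutions in DMSO for 72 h. Intracellular ATP read by luminescence. IC50 from a log(inhibitor) vs. response Hill fit.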

[4] = target: T3, AKT1 E17K (Homo sapiens, UniProt P31749, E17K); assay: Live cell target engagement by NanoBRET competitive probe displacement, AKT1 E17K; type: binding; settings: transfected HEK293 cells, 2 h at 37° C., read-out: AKT1 E17K IC50: GeoMean IC50
T3 construct: expressed in transfected cells; host or cells: HEK293
T3 sequence (P31749 whole entry E17K): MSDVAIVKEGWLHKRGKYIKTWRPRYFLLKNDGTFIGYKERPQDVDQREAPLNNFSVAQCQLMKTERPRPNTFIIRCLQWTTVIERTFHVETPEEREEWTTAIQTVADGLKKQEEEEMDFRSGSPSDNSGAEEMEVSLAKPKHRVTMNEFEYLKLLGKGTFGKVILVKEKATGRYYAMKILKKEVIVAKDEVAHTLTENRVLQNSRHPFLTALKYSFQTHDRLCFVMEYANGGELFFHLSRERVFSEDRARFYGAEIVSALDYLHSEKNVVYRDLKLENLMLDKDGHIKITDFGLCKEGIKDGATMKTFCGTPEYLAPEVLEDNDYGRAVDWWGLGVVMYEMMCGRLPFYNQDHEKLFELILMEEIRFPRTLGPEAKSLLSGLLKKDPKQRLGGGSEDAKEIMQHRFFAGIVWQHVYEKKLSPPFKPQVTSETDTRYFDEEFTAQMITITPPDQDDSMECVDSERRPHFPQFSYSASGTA

T1 sequence (P31749 whole entry): as the sequence (P31749 whole entry E17K) above, with K17E counted along it

Row | SMILES | IC50 [1] [nM] | IC50 [2] [nM] | IC50 [3] [nM] | IC50 [4] [nM]
1 | Nc1ncccc1-c1nc2ccc(-c3ccccc3)nc2n1-c1ccc2c(c1)CC[C@@H]2NC(=O)c1cc(C=O)c(O)cc1F [Example 16, N-[(1S)-5-[2-(2-aminopyridin-3-yl)-5-phenylimidazo[4,5-b]pyridin-3-yl]-2,3-dihydro-1H-inden-1-yl]-2-fluoro-5-formyl-4-hydroxybenzamide] | 10 to 100 | 10 to 100 | 100 to 2000 | 10 to 100
2 | Nc1ncccc1-c1nc2ccc(-c3ccccn3)nc2n1-c1ccc2c(c1)CC[C@@H]2NC(=O)c1ccc(O)c(C=O)c1 [Example 25, (S)—N-(5-(2-(2-aminopyridin-3-yl)-5-(pyridin-2-yl)-3H-imidazo[4,5-b]pyridin-3-yl)-2,3-dihydro-1H-inden-1-yl)-3-formyl-4-hydroxybenzamide] | 10 to 100 | 100 to 2000 | 10 to 100 | 10 to 100
3 | CS(=O)(=O)Nc1ccc(C(=O)N[C@H]2CCc3cc(-n4c(-c5cccnc5N)nc5ccc(-n6cccn6)nc54)ccc32)cc1C=O [Example 86, N-[(1S)-5-[2-(2-aminopyridin-3-yl)-5-(pyrazol-1-yl)imidazo[4,5-b]pyridin-3-yl]-2,3-dihydro-1H-inden-1-yl]-3-formyl-4-methanesulfonamidobenzamide] | 10 to 100 | 100 to 2000 | 10 to 100 | 10 to 100
4 | Cc1cc(-n2ccc(F)n2)nc2c1nc(-c1cccnc1N)n2-c1ccc2c(c1)CC[C@@H]2NC(=O)c1cc(C=O)c(O)c(F)c1F [Example 199, N-[(1S)-5-[2-(2-aminopyridin-3-yl)-5-(3-fluoropyrazol-1-yl)-7-methylimidazo[4,5-b]pyridin-3-yl]-2,3-dihydro-1H-inden-1-yl]-2,3-difluoro-5-formyl-4-hydroxybenzamide] | < 10 | 100 to 2000 | 100 to 2000 | < 10
5 | Cc1cc(-c2ncco2)nc2c1nc(-c1cccnc1N)n2-c1ccc2c(c1)CC[C@@H]2NC(=O)c1ccc(O)c(C=O)c1 [Example 211, N-[(1S)-5-[2-(2-aminopyridin-3-yl)-7-methyl-5-(1,3-oxazol-2-yl)imidazo[4,5-b]pyridin-3-yl]-2,3-dihydro-1H-inden-1-yl]-3-formyl-4-hydroxybenzamide] | 10 to 100 | 100 to 2000 | 10 to 100 | < 10
6 | Nc1ncccc1-c1nc2ccc(-n3cccn3)nc2n1-c1ccc2c(c1)[C@@H](O)C[C@@H]2NC(=O)c1ccc(O)c(C=O)c1 (single isomer, unassigned) [Example 99] | 100 to 2000 | 100 to 2000 | 100 to 2000 | 100 to 2000
7 | Nc1ncccc1-c1nc2ccc(-n3cccn3)nc2n1-c1ccc2c(c1)CC[C@@H]2NC(=O)c1cc(C=O)c(O)c(C(F)(F)F)c1 [Example 100, N-[(1S)-5-[2-(2-aminopyridin-3-yl)-5-(pyrazol-1-yl)imidazo[4,5-b]pyridin-3-yl]-2,3-dihydro-1H-inden-1-yl]-3-formyl-4-hydroxy-5-(trifluoromethyl)benzamide] | 100 to 2000 | 100 to 2000 | 100 to 2000 | 10 to 100
